The results in this text go back to article PMC12475274, “Harnessing indole scaffolds to identify small-molecule IRE1α inhibitors modulating XBP1 mRNA splicing” (Nature Communications, 2025).

pKd: −log10 of the molar value. “Also recorded” adds a separate entry of the source.

One assay has as its target T1, phosphorylated IRE1α (Homo sapiens, UniProt O75460).
T1 construct: Human IRE1α kinase and RNase domain (residues 547–977) was subcloned into pLIB plasmid; His tag (with TEV cleavage site) (N, cleaved yes); made in house; host or cells: Sf9 insect cells, baculovirus (Bac-to-Bac)
The experiment in a line: Microscale thermophoresis (MST), p-IRE1α. It counts as binding. As for the experimental part:
Dephosphorylated IRE1α protein and phosphorylated IRE1α protein were labeled and purified using Protein Labeling Kit RED-NHS 2nd Generation (NanoTemper, MO-L011), following the manufacturer’s protocol. The labeling buffer contained 50 mM HEPES, pH 7.5, 200 mM NaCl, 2% glycerol, 0.5 mM TCEP, 0.05% tween20. MST experiments were performed using the Monolith Nt.115 instrument (NanoTemper), and binding experiments were conducted according to the instrument’s instructions. Compounds were serially diluted 2-fold and incubated with labeled IRE1α protein at a final concentration of 20 nM. The highest compound concentration measured was 250 μM with a final DMSO concentration of 2.5%. Measurements were carried out using the red detector with 60% excitation power. Data were analyzed using the manufacturer’s software, and results from three individual measurements were merged for analysis.
For orientation: In MST a laser heats a spot of the sample, and binding alters the fluorescence response.

The next assay deals with ACVR1 (ALK2) (Homo sapiens, UniProt Q04771). The experiment in a line: Kinase profiling (SelectScreen), LanthaScreen Binding. To be noted: IA107 at 5 μM. As for the experimental part: (§1) Kinase profiling was conducted by the SelectScreen Kinase Profiling Services (Thermo Fisher), using Z′-LYTE, Adapta, or LanthaScreen Eu Kinase Binding Assay for different kinases. The kinome phylogenetic tree was generated using the KinMap web portal.
ACVR1 (ALK2), sequence (Q04771 21-509): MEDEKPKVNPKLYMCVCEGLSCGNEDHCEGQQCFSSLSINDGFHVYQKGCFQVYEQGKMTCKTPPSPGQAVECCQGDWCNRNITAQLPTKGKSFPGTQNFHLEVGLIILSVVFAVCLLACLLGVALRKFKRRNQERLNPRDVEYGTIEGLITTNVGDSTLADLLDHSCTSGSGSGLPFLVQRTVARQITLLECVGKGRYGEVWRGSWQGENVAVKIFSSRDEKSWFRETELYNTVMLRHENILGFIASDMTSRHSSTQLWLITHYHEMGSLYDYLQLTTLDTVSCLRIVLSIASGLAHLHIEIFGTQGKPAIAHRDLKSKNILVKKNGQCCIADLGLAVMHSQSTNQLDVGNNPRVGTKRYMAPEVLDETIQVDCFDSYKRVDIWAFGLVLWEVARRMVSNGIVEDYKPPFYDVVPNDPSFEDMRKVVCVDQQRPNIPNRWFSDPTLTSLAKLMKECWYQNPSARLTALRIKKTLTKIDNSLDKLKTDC
In general terms: In TR-FRET formats the signal depends on donor and acceptor labels being close together.

A further assay concerns the target BRSK2 (Homo sapiens, UniProt Q8IWQ3). The description is as above. To be noted: IA107 at 5 μM. The procedure: as §1
In a further assay the target is CAMKK2 (CaMKK beta) (Homo sapiens, UniProt Q96RR4). The description is as above. The following applies: IA107 at 5 μM. As for the experimental part:
as §1

Another assay deals with CDC7/DBF4 (Homo sapiens, UniProt O00311). Described as above. To be noted: IA107 at 5 μM. The procedure: as §1
In the next assay the target is DDR2 (Homo sapiens, UniProt Q16832). The assay is described as above. To be noted: IA107 at 5 μM. As for the experimental part: as §1
DDR2, sequence (Q16832 22-855): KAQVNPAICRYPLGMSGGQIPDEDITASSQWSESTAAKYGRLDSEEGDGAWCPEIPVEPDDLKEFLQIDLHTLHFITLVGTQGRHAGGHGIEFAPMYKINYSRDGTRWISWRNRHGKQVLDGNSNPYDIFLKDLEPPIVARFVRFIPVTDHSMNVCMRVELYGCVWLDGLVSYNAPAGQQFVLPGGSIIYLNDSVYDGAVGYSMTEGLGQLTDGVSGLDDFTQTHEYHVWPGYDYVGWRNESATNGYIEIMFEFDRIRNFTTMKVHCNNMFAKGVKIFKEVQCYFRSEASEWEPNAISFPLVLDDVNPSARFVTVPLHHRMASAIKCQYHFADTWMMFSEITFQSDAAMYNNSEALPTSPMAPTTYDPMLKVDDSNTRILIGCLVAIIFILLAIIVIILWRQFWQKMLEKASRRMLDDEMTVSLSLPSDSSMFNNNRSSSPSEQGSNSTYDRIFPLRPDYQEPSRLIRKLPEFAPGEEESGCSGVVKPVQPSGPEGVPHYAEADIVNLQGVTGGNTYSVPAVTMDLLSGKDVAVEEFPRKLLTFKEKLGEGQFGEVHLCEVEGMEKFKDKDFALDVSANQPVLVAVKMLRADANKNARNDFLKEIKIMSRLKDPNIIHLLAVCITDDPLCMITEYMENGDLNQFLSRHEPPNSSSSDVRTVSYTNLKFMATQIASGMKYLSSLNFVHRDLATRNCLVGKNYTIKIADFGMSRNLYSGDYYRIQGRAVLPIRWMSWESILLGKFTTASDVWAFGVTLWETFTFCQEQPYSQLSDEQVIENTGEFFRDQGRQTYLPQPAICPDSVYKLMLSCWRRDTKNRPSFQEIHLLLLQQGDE
The target in the next assay is ICK (Homo sapiens, UniProt Q9UPZ9). The assay is described as above. To be noted: IA107 at 5 μM. As for the experimental part:
as §1

The next assay concerns the target LIMK1 (Homo sapiens, UniProt P53667). The description is as above. The following applies: IA107 at 5 μM. As for the experimental part: as §1
The next assay deals with MAP3K14 (NIK) (Homo sapiens, UniProt Q99558). The assay is described as above. To be noted: IA107 at 5 μM. As for the experimental part:
as §1

The target in another assay is MAPK15 (ERK7) (Homo sapiens, UniProt Q8TD08). Described as above. The following applies: IA107 at 5 μM. The procedure: as §1
MAPK15 (ERK7), sequence (Q8TD08 whole entry): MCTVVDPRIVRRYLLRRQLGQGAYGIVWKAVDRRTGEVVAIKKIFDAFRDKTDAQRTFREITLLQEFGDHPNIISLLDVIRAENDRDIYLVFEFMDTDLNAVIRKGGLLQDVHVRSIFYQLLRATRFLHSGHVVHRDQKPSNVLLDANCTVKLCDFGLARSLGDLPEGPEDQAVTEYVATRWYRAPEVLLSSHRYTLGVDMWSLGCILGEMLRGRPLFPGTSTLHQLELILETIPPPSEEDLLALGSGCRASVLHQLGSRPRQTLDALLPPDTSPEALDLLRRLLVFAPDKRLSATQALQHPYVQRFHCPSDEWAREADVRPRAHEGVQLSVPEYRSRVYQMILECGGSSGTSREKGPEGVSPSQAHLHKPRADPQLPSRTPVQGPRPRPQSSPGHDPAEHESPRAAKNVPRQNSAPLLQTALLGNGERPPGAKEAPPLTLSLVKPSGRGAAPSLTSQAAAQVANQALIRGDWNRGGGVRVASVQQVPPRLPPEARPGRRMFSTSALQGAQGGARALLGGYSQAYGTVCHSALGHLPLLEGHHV
A further assay deals with STK32B (YANK2) (Homo sapiens, UniProt Q9NY57). Described as above. To be noted: IA107 at 5 μM. The procedure:
as §1

In the next assay the target is STK33 (Homo sapiens, UniProt Q9BYT3). The description is as above. To be noted: IA107 at 5 μM. The procedure: as §1
A further assay addresses STK38 (NDR) (Homo sapiens, UniProt Q15208). The assay is described as above. The following applies: IA107 at 5 μM. As for the experimental part:
as §1

The next assay concerns the target TGFBR1 (ALK5) (Homo sapiens, UniProt P36897). The description is as above. The following applies: IA107 at 5 μM. The procedure:
as §1

The target of another assay is TLK1 (Homo sapiens, UniProt Q9UKI8). Described as above. To be noted: IA107 at 5 μM. The procedure:
as §1

The target in the next assay is TTK (Homo sapiens, UniProt P33981). Described as above. The following applies: IA107 at 5 μM. As for the experimental part:
as §1

The next assay concerns the target ULK2 (Homo sapiens, UniProt Q8IYT8). Described as above. The following applies: IA107 at 5 μM. The procedure:
as §1

The target of the next assay is T2, IRE1α in A549 cells (Homo sapiens, UniProt O75460).
T2 construct: endogenous in cells; host or cells: A549 cells
T2 sequence (O75460 19-977): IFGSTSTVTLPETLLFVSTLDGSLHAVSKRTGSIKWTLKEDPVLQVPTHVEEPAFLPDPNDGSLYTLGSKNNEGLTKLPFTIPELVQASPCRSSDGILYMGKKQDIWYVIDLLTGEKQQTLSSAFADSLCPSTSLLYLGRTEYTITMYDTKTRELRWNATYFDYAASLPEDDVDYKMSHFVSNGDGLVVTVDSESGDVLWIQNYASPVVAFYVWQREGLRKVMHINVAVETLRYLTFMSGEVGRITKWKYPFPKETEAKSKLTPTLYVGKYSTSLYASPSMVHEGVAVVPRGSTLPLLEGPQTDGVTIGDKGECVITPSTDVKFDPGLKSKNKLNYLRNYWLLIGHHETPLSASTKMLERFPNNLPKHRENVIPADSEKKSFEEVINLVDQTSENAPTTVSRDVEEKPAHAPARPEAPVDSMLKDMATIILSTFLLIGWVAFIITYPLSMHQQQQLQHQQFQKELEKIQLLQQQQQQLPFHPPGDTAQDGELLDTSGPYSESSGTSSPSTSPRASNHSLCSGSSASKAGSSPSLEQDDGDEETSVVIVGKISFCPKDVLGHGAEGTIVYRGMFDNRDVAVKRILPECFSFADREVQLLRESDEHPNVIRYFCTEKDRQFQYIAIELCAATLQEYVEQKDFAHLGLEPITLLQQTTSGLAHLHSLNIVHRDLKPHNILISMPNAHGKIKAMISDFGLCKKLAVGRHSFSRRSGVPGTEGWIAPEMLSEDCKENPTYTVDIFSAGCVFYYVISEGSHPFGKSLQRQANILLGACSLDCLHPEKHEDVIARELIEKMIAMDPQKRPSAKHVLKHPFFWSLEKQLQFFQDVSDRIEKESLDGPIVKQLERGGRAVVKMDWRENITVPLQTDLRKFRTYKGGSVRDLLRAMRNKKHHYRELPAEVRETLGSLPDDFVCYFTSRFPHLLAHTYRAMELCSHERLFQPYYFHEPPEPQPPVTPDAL
Kind of assay: Cellular thermal shift assay (CETSA) in A549 cells. It is filed as cell-based. The procedure:
A549 cells were harvested and seeded into 100 mm standard cell culture dishes at 80% confluency and cultured overnight. For the IA107 experiment, cells were gently washed with pre-cooled DPBS (Gibco,14190169) and lysed in RIPA buffer (Sigma, R0278) supplemented with phosphatase inhibitor (Roch, 4906845001) and 1× protease inhibitor cocktail (Sigma, P8340) for 30 min on ice. Cell lysates were centrifuged at 18,000 × g for 30 min at 4 °C and the supernatants were collected. The lysates were collected together and then aliquoted into 550 μL, the aliquots were incubated with different concentrations of IA107 with a final concentration of 0.1% DMSO for 30 min at room temperature. […]
For the IAPD1 experiment, A549 cells were treated with different concentrations of IAPD1 or DMSO for 4 h (final 0.1% DMSO). […] Lysates were collected by scraping and centrifuged at 18,000 × g for 30 min at 4 °C, and the protein concentrations of the supernatants were quantified using a BCA protein assay kit (Thermo Scientific, 23227) and diluted to 4 μg/μL, then cell lysate was aliquoted into 10 PCR tubes, with 50 μL of lysate per tube. […] After heating, samples were centrifuged at 18,000 × g for 30 min at 4 °C, and supernatants were collected and analyzed by western blot using the method and antibodies aforementioned.

STK38 (NDR), sequence (Q15208 whole entry): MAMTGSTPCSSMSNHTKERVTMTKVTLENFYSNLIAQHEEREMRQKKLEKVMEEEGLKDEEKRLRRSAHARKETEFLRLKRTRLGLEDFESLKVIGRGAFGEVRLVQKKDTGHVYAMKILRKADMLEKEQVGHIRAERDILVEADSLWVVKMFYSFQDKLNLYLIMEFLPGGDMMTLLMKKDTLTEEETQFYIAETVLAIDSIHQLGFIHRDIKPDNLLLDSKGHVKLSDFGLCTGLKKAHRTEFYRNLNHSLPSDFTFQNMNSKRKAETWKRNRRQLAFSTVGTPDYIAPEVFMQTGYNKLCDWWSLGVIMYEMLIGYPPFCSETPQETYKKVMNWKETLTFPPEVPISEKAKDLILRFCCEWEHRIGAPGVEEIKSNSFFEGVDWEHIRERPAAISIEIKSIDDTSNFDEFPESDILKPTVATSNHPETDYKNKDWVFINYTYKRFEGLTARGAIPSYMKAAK
MAP3K14 (NIK), sequence (Q99558 whole entry): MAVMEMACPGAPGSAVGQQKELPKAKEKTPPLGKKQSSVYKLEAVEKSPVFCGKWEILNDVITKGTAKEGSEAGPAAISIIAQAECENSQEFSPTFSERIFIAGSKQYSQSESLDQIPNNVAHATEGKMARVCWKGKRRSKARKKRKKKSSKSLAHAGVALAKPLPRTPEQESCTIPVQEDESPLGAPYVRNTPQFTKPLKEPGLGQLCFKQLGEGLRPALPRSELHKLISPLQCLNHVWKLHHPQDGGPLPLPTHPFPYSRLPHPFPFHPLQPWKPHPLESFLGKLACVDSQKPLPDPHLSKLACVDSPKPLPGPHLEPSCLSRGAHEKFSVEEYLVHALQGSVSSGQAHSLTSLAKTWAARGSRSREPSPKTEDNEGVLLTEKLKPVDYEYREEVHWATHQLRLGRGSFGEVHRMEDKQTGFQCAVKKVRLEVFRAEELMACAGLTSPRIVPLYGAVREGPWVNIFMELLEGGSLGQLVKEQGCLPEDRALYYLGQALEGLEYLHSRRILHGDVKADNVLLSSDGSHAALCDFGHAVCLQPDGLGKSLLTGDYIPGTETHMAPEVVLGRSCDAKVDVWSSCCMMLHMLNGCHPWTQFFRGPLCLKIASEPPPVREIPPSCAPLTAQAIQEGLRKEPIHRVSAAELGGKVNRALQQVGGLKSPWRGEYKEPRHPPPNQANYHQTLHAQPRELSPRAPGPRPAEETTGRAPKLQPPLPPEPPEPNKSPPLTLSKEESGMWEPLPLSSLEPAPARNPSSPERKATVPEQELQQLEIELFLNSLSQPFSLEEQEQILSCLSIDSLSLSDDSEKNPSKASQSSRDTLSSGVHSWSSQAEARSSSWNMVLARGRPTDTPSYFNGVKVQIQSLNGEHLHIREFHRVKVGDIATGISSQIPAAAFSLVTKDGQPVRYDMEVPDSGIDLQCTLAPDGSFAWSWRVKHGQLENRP
TLK1, sequence (Q9UKI8 whole entry): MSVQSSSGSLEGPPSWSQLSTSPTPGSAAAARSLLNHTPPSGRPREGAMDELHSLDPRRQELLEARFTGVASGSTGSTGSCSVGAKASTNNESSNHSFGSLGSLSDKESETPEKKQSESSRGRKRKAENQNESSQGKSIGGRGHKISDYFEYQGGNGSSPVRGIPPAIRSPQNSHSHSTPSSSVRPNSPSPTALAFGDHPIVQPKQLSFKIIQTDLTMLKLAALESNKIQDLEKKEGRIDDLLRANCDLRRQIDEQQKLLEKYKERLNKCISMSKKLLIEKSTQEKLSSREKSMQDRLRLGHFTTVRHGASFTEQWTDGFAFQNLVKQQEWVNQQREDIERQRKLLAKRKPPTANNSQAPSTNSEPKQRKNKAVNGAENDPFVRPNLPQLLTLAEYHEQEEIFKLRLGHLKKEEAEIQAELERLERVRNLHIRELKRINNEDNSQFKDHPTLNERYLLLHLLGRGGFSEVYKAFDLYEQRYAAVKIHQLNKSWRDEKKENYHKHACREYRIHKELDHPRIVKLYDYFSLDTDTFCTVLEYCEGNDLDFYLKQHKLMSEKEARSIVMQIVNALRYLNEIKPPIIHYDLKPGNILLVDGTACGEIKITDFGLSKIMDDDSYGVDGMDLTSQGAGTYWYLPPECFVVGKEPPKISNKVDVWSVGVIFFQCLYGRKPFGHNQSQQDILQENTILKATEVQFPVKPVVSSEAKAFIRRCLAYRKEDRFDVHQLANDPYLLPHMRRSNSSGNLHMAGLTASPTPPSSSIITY

Broadly, the pKd is −log10 of the Kd, conventionally taken in molar units. A low value points to a high Kd. Usually inhibition stands for the change of the read-out against control, counted positive when it falls. As to `Cc1c(CCC(=O)O)c2cc(Br)ccc2n1C(=O)c1ccccc1` [IA107], the pKd at phosphorylated IRE1α was 6.82. Further, the inhibition at 5 µM was 2% on ACVR1 (ALK2); 1% at BRSK2; 4% at CAMKK2 (CaMKK beta); 8% at CDC7/DBF4; -1% on DDR2; -2% on ICK. The inhibition at 5 µM on LIMK1 was -16%; on MAP3K14 (NIK) it was 0%; on MAPK15 (ERK7), 17%; on STK32B (YANK2), 2%; at STK33, -4%; at STK38 (NDR), 6%. The inhibition at 5 µM was 54% on TGFBR1 (ALK5), -12% on TLK1, 6% on TTK and -3% at ULK2.
Consider `CCOC(=O)CCc1c(C)n(C(=O)c2ccccc2)c2ccc(Br)cc12` [IAPD1], for which the “treatment concentration below which stabilizing effects are negligible (CETSA)” value at IRE1α in A549 cells (A549 cells) is reported as “lower than 2.22 μM”. For the same compound, the “thermal stabilization of cellular IRE1α, CETSA” value at IRE1α in A549 cells (A549 cells treated 4 h) is recorded as “dose-dependently stabilized; also recorded: concentration-dependently stabilized; also recorded: concentration-dependently increased”.
